Earlier results, collected in patent publication US20210121517A1, “STABLE PARENTERAL DOSAGE FORM OF CETRORELIX ACETATE” (Sun Pharmaceutical Industries Limited, priority 2019, published 2021).
Where two headings read alike, the source gives them in different places.

Details: 2.5 mg/ml

acetyl-D-3-(2′-naphtyl)-alanine-D-4-chlorophenylalanine-D-3-(3′-pyridyl)-alanine-L-serine-L-tyrosine-D-citruline-L-leucine-L-arginine-L-proline-D-alanine-amide [Cetrorelix acetate]
time until aggregation was seen (gluconic acid 0.71%, pH 3.1): 12 days | time until aggregation was seen (gluconic acid less than 0.07%, pH 3.7): ≤ 2 days
